Reference: patent US8906945B2 (priority 2009, dated 2014)
Read-outs that look alike come from different tables or passages of the source.

Assays:
in vitro = settings: human
HeLa cells = settings: ratio of HeLa CC50 vs ExoS′-βLA IC50
[1] = system: T3SS-mediated secretion of YopE-βLA fusion protein from Y. pestis strain JG153/pMM85; test: microbe, parasite or virus in culture; format: cell-based; settings: Yersinia pestis, read-out: yopE-βLA IC50
[2] = system: P. aeruginosa T3SS (exoT-luxCDABE reporter strain MDM852); format: cell-based, Pseudomonas aeruginosa; settings: both at 50 μM compound; for Serum Effect: % inhibition of exoT-lux RLU in the absence of serum/% inhibition in the presence of 10% fetal calf serum; for RLU Selectivity / RLU-S (RLU Selectivity): % inhibition of exoT-lux RLU/% inhibition of lac-lux RLU; for RLU-S (RLU Selectivity): Table 5
[3] = system: T3SS-mediated secretion of ExoS′-βLA fusion protein from P. aeruginosa strain MDM973; test: microbe, parasite or virus in culture; format: cell-based, Pseudomonas aeruginosa
P. aeruginosa = test: Minimum inhibitory concentration (broth microdilution); settings: Pseudomonas aeruginosa, read-out: MIC vs. P. aeruginosa
[4] = system: ExoU translocation from P. aeruginosa strain PAKΔSTYexoU into CHO cells; test: Inhibition of P. aeruginosa ExoU-dependent CHO cell killing (LDH release); settings: ExoU-secreting P. aeruginosa, MOI 5
[5] = CC50 (cytotoxicity, HeLa), absence of serum
[6] = Pseudomonas aeruginosa, read-out: ExoS′-βLA IC50, Table 3, secretion from P. aeruginosa strain MDM973 reduced by 50%
[7] = Pseudomonas aeruginosa, read-out: IC50 in the ExoS′-βLA secretion assay
[8] = Pseudomonas aeruginosa, read-out: ExoS′-βLA IC50, Table 5, P. aeruginosa strain MDM973
[9] = Pseudomonas aeruginosa, read-out: IC50 (μM) (ExoS′-βLA assay), Table 4
[10] = Table 4, read-out: IC50 (μM) (ExoS′-βLA assay)

Compound	CC50 (in vitro; HeLa CC50)	CC50/IC50 (HeLa cells)	Serum Effect [2]	RLU Selectivity [2]	IC50 [3, 6]	IC50 [3, 9]	other results
Cc1ccc(N2C(=O)C3C(C2=O)C2(C)C=CC3(C)O2)c(C)c1 (stereo not drawn) [Compound 8, 2-(2,4-dimethylphenyl)-4,7-dimethyl-3a,4,7,7a-tetrahydro-1H-4,7-epoxyisoindole-1,3(2H)-dione]	> 100 µM	>6.7	3.1	9.2	15 µM		CC50 (in vitro; [5]): ≥ 100 µM; IC50 [1]: 103 µM; IC50 [3, 7]: ≤ 25 µM; MIC (P. aeruginosa): > 100 µM; rescue of CHO cells from ExoU cytotoxicity (in words) [4]: failed to inhibit T3SS-mediated translocation
Cc1nnc(-c2ccc(OCC(=O)N3CCc4ccccc43)cc2)o1 [F5054-0019, 1-(indolin-1-yl)-2-(4-(5-methyl-1,3,4-oxadiazol-2-yl)phenoxy)ethanone]							RLU-S (RLU Selectivity) [2]: 10.8; IC50 [3, 8]: 22.3 µM
CCN1CCOC(CC(=O)Nc2ccc3c(c2)OCCO3)C1=O (stereo not drawn) [Compound 3, N-(2,3-dihydrobenzo[b][1,4]dioxin-6-yl)-2-(4-ethyl-3-oxomorpholin-2-yl)acetamide]	> 100 µM	>5.0	4.8	4.1	20 µM		CC50 (in vitro; [5]): ≥ 100 µM; IC50 [1]: 16 µM; IC50 [3, 7]: ≤ 25 µM; MIC (P. aeruginosa): > 100 µM; rescue of CHO cells from ExoU cytotoxicity (in words) [4]: failed to inhibit T3SS-mediated translocation
O=C(CC1Sc2ncnn2C1=O)Nc1ccccc1 (stereo not drawn) [Compound 2, 2-(6-oxo-5,6-dihydrothiazolo[3,2-b][1,2,4]triazol-5-yl)-N-phenylacetamide]	37 µM	3.1	2	2.6	12 µM		IC50 [1]: 6.1 µM
CC(Oc1ccc(Cl)cc1Cl)C(=O)NCc1ccc(F)cc1 (racemic) [compound 6380194, 2-(2,4-dichlorophenoxy)-N-(4-fluorobenzyl)propanamide]						9 µM	rescue of CHO cells from ExoU cytotoxicity (in words) [4]: rescued CHO cells
COc1ccc(CNC(=O)C(C)Oc2ccc(Cl)cc2Cl)cc1 (racemic) [compound 6375680, 2-(2,4-dichlorophenoxy)-N-(4-methoxybenzyl)propanamide]						10 µM	
CC(Oc1ccc(Cl)cc1Cl)C(=O)NC(C)C1CC2CCC1C2 (stereo not drawn) [compound 7247834, N-(1-(bicyclo[2.2.1]heptan-2-yl)ethyl)-2-(2,4-dichlorophenoxy)propanamide]							RLU-S (RLU Selectivity) [2]: 5.6; IC50 [3, 8]: 16.7 µM
CC(Oc1ccc(Cl)cc1Cl)C(=O)NCc1ccncc1 (racemic) [compound 6372013, 2-(2,4-dichlorophenoxy)-N-(4-pyridinylmethyl)propanamide]						59 µM	
Oc1ccc(O)c(Cc2nc3ccccc3[nH]2)c1 [compound 6430631, 2-((1H-benzo[d]imidazol-2-yl)methyl)benzene-1,4-diol]							RLU-S (RLU Selectivity) [2]: 4.2; IC50 [3, 8]: 22.3 µM
CCc1ccc2nc(N3C(=O)C(O)=C(C(=O)c4cccs4)C3c3ccc([N+](=O)[O-])cc3)sc2c1 (stereo not drawn) [Compound 10, 1-(6-ethylbenzo[d]thiazol-2-yl)-3-hydroxy-5-(4-nitrophenyl)-4-(thiophene-2-carbonyl)-1H-pyrrol-2(5H)-one]	16 µM	5.3	1.8	3.8	3 µM		IC50 [1]: 4.1 µM
CC(Oc1ccc(Cl)cc1Cl)C(=O)NCCC1=CCCCC1 (racemic) [compound 6467504, N-[2-(1-cyclohexen-1-yl)ethyl]-2-(2,4-dichlorophenoxy)propanamide]						> 100 µM	
CC(Oc1ccc(Cl)cc1Cl)C(=O)N(C)Cc1ccccc1 (racemic) [compound 6468028, N-benzyl-2-(2,4-dichlorophenoxy)-N-methylpropanamide]						21 µM	
Cc1ccc(NC(=O)/C=C/C(=O)OCC(F)(F)C(F)F)cc1 [Compound 5, (E)-2,2,3,3-tetrafluoropropyl 4-oxo-4-(p-tolylamino)but-2-enoate]	28 µM	1.3	2.6	4.5	22 µM		
CCN1CCOC(CC(=O)Nc2ccc(F)cc2)C1=O (stereo not drawn) [Compound 4, 2-(4-ethyl-3-oxomorpholin-2-yl)-N-(4-fluorophenyl)acetamide]	100 µM	6.2	4.2	3.9	13 µM		CC50 (in vitro; [5]): ≥ 100 µM; IC50 [1]: 6 µM; IC50 [3, 7]: ≤ 25 µM; MIC (P. aeruginosa): > 100 µM; rescue of CHO cells from ExoU cytotoxicity (in words) [4]: failed to inhibit T3SS-mediated translocation
CC(Oc1ccccc1Cl)C(=O)NCc1ccc2c(c1)OCO2 (racemic) [compound 9153915, N-(1,3-benzodioxol-5-ylmethyl)-2-(2-chlorophenoxy)propanamide]						23 µM	
pseudolipasin [reference compound]							rescue of CHO cells from ExoU cytotoxicity (in words) [4]: rescued CHO cells from ExoU toxicity with a similar potency
COc1ccccc1CNC(=O)C(C)Oc1ccc(Cl)cc1Cl (racemic) [compound 6374948, 2-(2,4-dichlorophenoxy)-N-(2-methoxybenzyl)propanamide]						12 µM	
CC(Oc1ccccc1F)C(=O)NCc1ccc2c(c1)OCO2 (stereo not drawn) [compound 7339628]							IC50 [3, 10]: > 100 µM
CC(Oc1ccc(Cl)cc1Cl)C(=O)NCc1ccc(Cl)c(Cl)c1 (racemic) [compound 7271715, N-(3,4-dichlorobenzyl)-2-(2,4-dichlorophenoxy)propanamide]						> 100 µM	
CC(Oc1ccc(Cl)cc1Cl)C(=O)NCc1ccco1 (racemic) [compound 5685325, 2-(2,4-dichlorophenoxy)-N-(2-furylmethyl)propanamide]						25 µM	rescue of CHO cells from ExoU cytotoxicity (in words) [4]: rescued CHO cells
CN1CCN(C(=S)c2ccc(N(C)C)cc2)CC1 [Compound 11, (4-(dimethylamino)phenyl)(4-methylpiperazin-1-yl)methanethione]	18 µM	0.9	1	22	19 µM		IC50 [1]: 19 µM
C[C@@H](Oc1ccc(Cl)cc1Cl)C(=O)NCc1ccc2c(c1)OCO2 [MBX 1684, (R)-N-(benzo[d][1,3]dioxol-5-ylmethyl)-2-(2,4-dichlorophenoxy)propanamide]						6 µM	T3SS inhibitory activity (active/inactive) ([3]; ExoS′-βLA reporter assay): active; IC50 [3, 7]: ~6 µM
NC(=O)/C=C/C(=O)Nc1ccccc1Cl [Compound 7, N1-(2-chlorophenyl)fumaramide]	40 µM	2.4	1.5	4.7	17 µM		
NC(=O)/C=C/C(=O)Nc1ccccc1 [Compound 6, N1-phenylfumaramide]	35 µM	1.8	1.5	3.6	19 µM		
Cc1ccc(CNC(=O)C(C)Oc2ccc(Cl)cc2Cl)cc1 (racemic) [compound 6109233, 2-(2,4-dichlorophenoxy)-N-(4-methylbenzyl)propanamide]						5 µM	
Cc1nn(C)cc1CNC(=O)C(C)Oc1ccc(Cl)cc1Cl (racemic) [compound 8804126, 2-(2,4-dichlorophenoxy)-N-[(1,3-dimethyl-1H-pyrazol-4-yl)methyl]propanamide]						61 µM	
CC(C)(Oc1ccc(Cl)cc1Cl)C(=O)NCc1ccc2c(c1)OCO2 [MBX 1685, N-[3,4-(methylenedioxy)benzyl]-2-(2,4-dichlorophenoxy)-2-methylpropanamide]							IC50 [3, 10]: > 100 µM
Cc1cc(Cl)ccc1OC(C)C(=O)NCc1ccc2c(c1)OCO2 (racemic) [compound 6116488, N-(1,3-benzodioxol-5-ylmethyl)-2-(4-chloro-2-methylphenoxy)propanamide]						98 µM	
C[C@H](Oc1ccc(Cl)cc1Cl)C(=O)NCc1ccc2c(c1)OCO2 [MBX 1686, N-[3,4-(methylenedioxy)benzyl]-(S)-2-(2,4-dichlorophenoxy)propanamide]							T3SS inhibitory activity (active/inactive) [3]: inactive; IC50 [3, 10]: > 100 µM; IC50 ([3]; read-out: IC50 in the ExoS′-βLA secretion assay): > 100 µM
O=C(COc1ccc(Cl)cc1Cl)NCc1ccc2c(c1)OCO2 [MBX 1668, N-[3,4-(methylenedioxy)benzyl]-2-(2,4-dichlorophenoxy)acetamide]							IC50 [3, 10]: > 100 µM
